Results from patent US10906899B2, “Bicyclic fused pyrazole derivatives for the treatment of RSV” (GEORGIA STATE UNIVERSITY RESEARCH FOUNDATION, INC., priority 2016, dated 2021).
Like-named read-outs stand apart in the source and are kept apart here.

Tested on: RSV
Assay: Dose-response counterscreen: luciferase reporter virus infection of BEAS-2B cells (EC50)
Assay type: cell-based, respiratory syncytial virus (RSV)
Details: human respiratory syncytial virus, read-out: Potency Range (EC50 values)
[1] = A series compounds, anti-RSV potency

SMILES	EC50 (B series compounds) [nM]	EC50 [1] [nM]
Cc1c2c(=O)n(-c3nc4ccccc4s3)n(CC3CCCOC3)c2cc(=O)n1Cc1ccco1 (stereo not drawn) [AVG-072]	1000 to 10000	–
Cc1c2c(=O)n(-c3nc4ccccc4s3)n(Cc3ccccc3)c2cc(=O)n1Cc1ccn[nH]1 [AVG-101]	1000 to 10000	–
Cc1c2c(=O)n(-c3nc4ccccc4s3)n(Cc3ccccc3)c2cc(=O)n1Cc1cccc(C(C)C)n1 [AVG-159]	10 to 100	–
Cc1c2c(=O)n(-c3nc4ccccc4s3)n(Cc3cocn3)c2cc(=O)n1Cc1ccco1 [AVG-125]	> 20000	–
COc1ccc(Cn2ncc3c2NC(=O)CC3c2ccc(OC)c(OC3CCCC3)c2)c(OC)c1 (stereo not drawn) [AVG-068, 4-(3-(cyclopentyloxy)-4-methoxyphenyl)-1-(2,4-dimethoxybenzyl)-4,5-dihydro-1H-pyrazolo[3,4-b]pyridin-6(7H)-one]	–	1000 to 10000
Cc1cccc2sc(-n3c(=O)c4c(C)n(Cc5cccc(Cl)n5)c(=O)cc4n3Cc3ccccc3)nc12 [AVG-191]	100 to 1000	–
Cc1c2c(=O)n(-c3nc4ccccc4s3)n(Cc3ccccc3)c2cc(=O)n1Cc1c[nH]cn1 [AVG-099]	1000 to 10000	–
COc1ccc(Cn2c3cc(=O)n(Cc4cccc(Cl)n4)c(C)c3c(=O)n2-c2ccccn2)cc1 [AVG-233]	10 to 100	–
COc1ccc(Cn2c3cc(=O)n(Cc4cccc(OC)n4)c(C)c3c(=O)n2-c2nc3ccccc3s2)cc1 [AVG-231]	10 to 100	–
COc1ccc(Cn2c(C)c3c(=O)n(-c4ccccn4)n(Cc4ccccc4)c3cc2=O)cc1 [AVG-132]	1000 to 10000	–
Cc1c2c(=O)n(-c3ccccn3)n(Cc3ccccc3)c2cc(=O)n1Cc1ccc(F)cc1 [AVG-129]	100 to 1000	–
Cc1c2c(=O)n(-c3nc4ccccc4s3)n(Cc3ccccc3)c2cc(=O)n1CC1CCOCC1 [AVG-040]	1000 to 10000	–
Cc1c2c(=O)n(-c3nc4ccccc4s3)n(Cc3ccccc3)c2cc(=O)n1Cc1ccc(Cl)cn1 [AVG-095]	1000 to 10000	–
Cc1ccc2nc(-n3c(=O)c4c(C)n(Cc5cccc(Cl)n5)c(=O)cc4n3Cc3ccccc3)sc2c1 [AVG-193]	100 to 1000	–
Cc1c2c(=O)n(-c3nc4ccccc4s3)n(Cc3ccc(Cl)cc3)c2cc(=O)n1Cc1cccc(Cl)n1 [AVG-173]	100 to 1000	–
Cc1c2c(=O)n(-c3nc4ccccc4s3)n(Cc3ccccc3)c2cc(=O)n1Cc1cccc(OC2CCN(C)CC2)n1 [AVG-208]	1000 to 10000	–
Cc1c2c(=O)n(-c3nc4ccccc4s3)n(Cc3ccccc3)c2cc(=O)n1Cc1ccccc1Cl [AVG-076]	10000 to 20000	–
COc1ccc(Cn2c(=O)c3c(C)n(Cc4ccccn4)c(=O)cc3n2Cc2ccccc2)cc1 [AVG-199]	10000 to 20000	–

SMILES	EC50 (B series compounds) [nM]	EC50 [1] [nM]
Cc1c2c(=O)n(-c3nc4ccccc4s3)n(Cc3ccco3)c2cc(=O)n1Cc1ccco1 [AVG-122]	1000 to 10000	–
Cc1c2c(=O)n(-c3ccccn3)n(Cc3ccccc3)c2cc(=O)n1Cc1cccc(Cl)n1 [AVG-171]	10 to 100	–
Cc1c2c(=O)n(-c3ccccn3)n(Cc3ccccc3)c2cc(=O)n1Cc1nc(Cl)cs1 [AVG-252]	100 to 1000	–
Cc1c2c(=O)n(-c3nc4ccccc4s3)n(Cc3ccccc3)c2cc(=O)n1Cc1cc(Cl)ccn1 [AVG-160]	1000 to 10000	–
Cc1c2c(=O)n(-c3nc4ccccc4s3)[nH]c2cc(=O)n1Cc1ccco1 [AVG-022, 2-(benzo[d]thiazol-2-yl)-5-(furan-2-ylmethyl)-4-methyl-1H-pyrazolo[4,3-c]pyridine-3,6(2H, 5H)-dione]	100 to 1000	–
Cc1c2c(=O)n(-c3nc4ccccc4s3)n(Cc3cccnc3)c2cc(=O)n1Cc1ccco1 [AVG-120]	1000 to 10000	–
COc1ccccc1Cn1c(C)c2c(=O)n(-c3ccccn3)n(Cc3ccccc3)c2cc1=O [AVG-133]	100 to 1000	–
Cc1c2c(=O)n(-c3nc4ccccc4s3)n(Cc3ccccc3)c2cc(=O)n1Cc1cccc(C2CCOCC2)n1 [AVG-227]	100 to 1000	–
Cc1c2c(=O)n(-c3nc4ccccc4s3)n(C(C)c3ccccc3)c2cc(=O)n1Cc1ccccn1 (stereo not drawn) [AVG-135]	10000 to 20000	–
COc1cc(C2CC(=O)Nc3nn(-c4ccccn4)cc32)ccc1OC1CCCC1 (stereo not drawn) [AVG-180b]	–	10000 to 20000
COc1ccc(Cn2c3cc(=O)n(Cc4cccc(Cl)n4)c(C)c3c(=O)n2-c2nc3ccccc3s2)cc1 [AVG-178]	10 to 100	–
Cc1c2c(=O)n(-c3nc4ccccc4s3)n(Cc3ccccc3)c2cc(=O)n1Cc1ccccn1 [AVG-036]	100 to 1000	–
COc1ccc(Cn2c3cc(=O)n(Cc4cccc(OC(C)C)n4)c(C)c3c(=O)n2-c2ccccn2)cc1 [AVG-254]	100 to 1000	–
Cc1c2c(=O)n(-c3ccccn3)n(CC3CCOCC3)c2cc(=O)n1Cc1ccc(Cl)cc1 [AVG-079]	> 20000	–
Cc1c2c(=O)n(-c3nc4ccccc4s3)n(Cc3ccccc3)c2cc(=O)n1Cc1cnc(Cl)cn1 [AVG-163]	1000 to 10000	–
Cc1c2c(=O)n(-c3nc4ccccc4s3)n(Cc3ccccc3)c2cc(=O)n1C1CCOCC1 [AVG-043]	10000 to 20000	–
CCOc1cccc(Cn2c(C)c3c(=O)n(-c4nc5ccccc5s4)n(Cc4ccccc4)c3cc2=O)n1 [AVG-204]	100 to 1000	–
Cc1c2c(=O)n(-c3nc4ccccc4s3)n(Cc3ccccc3)c2cc(=O)n1Cc1nccnc1Cl [AVG-164]	> 20000	–
